Assay results reported in patent US20090275586A1, “HETEROCYCLIC INHIBITORS OF PDE4” (KALYPSYS, INC., priority 2006, published 2009).

Legend:
PDE4B = target: T1, PDE4B (Homo sapiens, UniProt Q07343); assay: PDE4 IMAP Assay; format: biochemical; settings: 2 h; Activity at 10 μM; catalytic domain of PDE4B; read-out: PDE IMAP Assay
T1 construct: hexa-histidine (His6) (N); made in house
From the text: Compounds may be screened for functional potency in in vitro biochemical assays for their ability to inhibit the activity of phosphodiesterase (PDE) enzymes. A commercial PDE assay, Molecular Device's PDE IMAP assay, was modified and utilized to measure the inhibitory activity of compounds on PDE isoforms. The IMAP technology is based on the high affinity binding of phosphate by immobilized metal (MIII) coordination complexes on nanoparticles. This IMAP “binding reagent” complexes with phosphate groups on the nucleotide monophosphates generated in the reaction. Such binding causes a change in the rate of the molecular motion of the nucleotide, and results in an increase in the fluorescence polarization value observed for the fluorescent label attached to the substrate. PDE inhibitors prevent the generation of nucleotide monophosphates and the subsequent increase in polarization value observed for the fluorescent label attached to the substrate. The catalytic domain of PDE4B was fused to an amino-terminus hex-histadine affinity tag and purified. PDE4B enzyme was incubated with compounds for 10 minutes. Fluorescently labeled cyclic AMP substrates were then added to the PDE enzyme mix and incubated for 2 hours at room temperature. IMAP binding reagent was then added to the enzyme mix, incubated for 10-30 minutes and fluorescent polarization of the fluorescently labeled substrate was read either with the Perkin Elmer Viewlux or Molecular Devices Acquest or Analyst. Roflumilast and Rolipram are the positive controls used in the assay.

PDE4 = PDE4 Cellular CNG Assay; format: cell-based; settings: Activity at 10 μM; HEK293 cells stably expressing the CNG channel
From the text: Compounds may be screened for functional potency in in vitro cellular assays for their ability to inhibit the activity of phosphodiesterase (PDE) enzymes. A commercial membrane potential assay, Molecular Device's membrane potential assay kit, was modified and utilized to measure the inhibitory activity of compounds on PDE isoforms in living cells. The cellular assay utilizes genetically engineered cyclic nucleotide-gated (CNG) channels as cyclic-AMP (cAMP) sensors. On binding cAMP these ion channels open, allowing the flow of cations across the plasma membrane. CNG channel activity can be monitored by measuring Ca^2+ influx in cell populations. The influx of Ca causes a change in membrane potential that is measured by voltage sensitive dyes. PDE inhibitors prevent the degradation of cAMP that is generated by adenylyl cyclases that are activated upon stimulation of G protein-coupled receptors (GPCR) linked to the cAMP pathway. In brief, Molecular Device's membrane potential dye was added to HEK293 cells stably expressing the CNG channel and incubated for 2 hours at room temperature. Test compounds were then added to the cells and incubated for 15 minutes. A GPCR agonist was then added to the cells to stimulate the cAMP pathway and incubated for 45 minutes. Fluorescent measurements were then conducted with either the Molecular Devices Acquest or Analyst. PDE inhibitors will inhibit the degradation of cAMP and cause an increase in fluorescent signal. Roflumilast and Rolipram are the positive controls used in the assay.

recombinant human PDE4 = settings: reported value; read-out: IC50 with respect to inhibiting recombinant human PDE4; cited from earlier work

T1 sequence (Q07343 330-659 limits assumed, species assumed): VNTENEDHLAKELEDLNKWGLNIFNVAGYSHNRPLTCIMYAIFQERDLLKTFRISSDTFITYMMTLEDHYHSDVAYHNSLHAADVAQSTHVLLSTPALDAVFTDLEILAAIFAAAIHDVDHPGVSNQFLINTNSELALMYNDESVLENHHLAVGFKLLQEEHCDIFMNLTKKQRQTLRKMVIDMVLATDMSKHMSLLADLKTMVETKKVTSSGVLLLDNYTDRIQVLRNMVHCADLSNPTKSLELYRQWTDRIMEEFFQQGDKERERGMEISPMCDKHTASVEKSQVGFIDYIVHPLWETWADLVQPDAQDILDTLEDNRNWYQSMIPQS

inhibition at 10 µM (PDE4B) [%]	Structure (SMILES)	Cellular CNG Assay (PDE4)	IC50 (recombinant human PDE4) [nM]
≥ 50	COc1ccccc1Cn1c(=O)c2cccnc2n(Cc2ccccc2F)c1=O [Example 27, 1-(2-Fluorobenzyl)-3-(2-methoxybenzyl)pyrido[2,3-d]pyrimidine-2,4(1H,3H)-dione]	+ (+indicates Activity ≧ 50% at 10 μM)	
≥ 50	C/C(NCCO)=C1\C(=O)N(c2nc3ccccc3s2)N=C1c1ccccc1 [Example 28, (E)-1-(Benzo[d]thiazol-2-yl)-4-(1-(2-hydroxyethylamino)ethylidene)-3-phenyl-1H-pyrazol-5(4H)-one]	+ (+indicates Activity ≧ 50% at 10 μM)	
≥ 50	CCOC(=O)C1=C(C)N(CC(C)C)C(=O)/C1=C\c1ccc(OC)c(OC)c1 [Example 29, (Z)-Ethyl 4-(3,4-dimethoxybenzylidene)-1-isobutyl-2-methyl-5-oxo-4,5-dihydro-1H-pyrrole-3-carboxylate]	+ (+indicates Activity ≧ 50% at 10 μM)	
	COc1ccc(C2CNC(=O)C2)cc1OC1CCCC1 (stereo not shown) [rolipram]		~200
